Measured values reported in PubChem BioAssay (NCI).
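Where inhibition never reached the appropriate level, the endpoint shown equals the highest concentration tested. Otherwise, values were interpolated linearly from a five-concentration, 48-hour dose response in 96-well plates. GI50 marks 50% less growth. TGI is the concentration that stops growth completely.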

What was measured:
Assay in all cases: NCI tumour cell line growth inhibition, 48 h
[1] = system: 786-0 renal
[2] = system: A498 renal
[3] = system: A549 NSCLC
[4] = system: ACHN renal
[5] = system: BT-549 breast
[6] = system: CAKI-1 renal
[7] = system: CCRF-CEM leukemia
[8] = system: COLO 205 colon
[9] = system: DU-145 prostate
[10] = system: EKVX NSCLC
[11] = system: HCC-2998 colon
[12] = system: HCT-116 colon
[13] = system: HCT-15 colon
[14] = system: HL-60(TB) leukemia
[15] = system: HOP-62 NSCLC
[16] = system: HOP-92 NSCLC
[17] = system: HS 578T breast
[18] = system: HT29 colon
[19] = system: IGROV1 ovarian
[20] = system: K-562 leukemia
[21] = system: KM12 colon
[22] = system: LOX IMVI melanoma
[23] = system: M14 melanoma
[24] = system: MALME-3M melanoma
[25] = system: MCF7 breast
[26] = system: MDA-MB-231 breast
[27] = system: MDA-MB-435
[28] = system: MDA-MB-468 breast
[29] = system: MOLT-4 leukemia
[30] = system: NCI-H226 lung
[31] = system: NCI-H23 lung
[32] = system: NCI-H460 lung
[33] = system: NCI-H522 lung
[34] = system: NCI/ADR-RES ovarian
[35] = system: OVCAR-3 ovarian
[36] = system: OVCAR-4 ovarian
[37] = system: OVCAR-5 ovarian
[38] = system: OVCAR-8 ovarian
[39] = system: PC-3 prostate
[40] = system: RPMI-8226 leukemia
[41] = system: RXF 393 renal
[42] = system: SF-268 CNS
[43] = system: SF-295 CNS
[44] = system: SF-539 CNS
[45] = system: SK-MEL-2 melanoma
[46] = system: SK-MEL-28 melanoma
[47] = system: SK-MEL-5 melanoma
[48] = system: SK-OV-3 ovarian
[49] = system: SN12C renal
[50] = system: SNB-19 CNS
[51] = system: SNB-75 CNS
[52] = system: SR leukemia
[53] = system: SW-620 colon
[54] = system: T-47D breast
[55] = system: TK-10 renal
[56] = system: U251 CNS
[57] = system: UACC-257 melanoma
[58] = system: UACC-62 melanoma
[59] = system: UO-31 renal

`O=C(COc1ccc(NC(=O)Nc2ccc(Cl)cc2)cc1)N=Nc1c(O)[nH]c2ccc([N+](=O)[O-])cc12` gave a GI50 [1] of 15.6 µM, a TGI [1] of 34.6 µM and a GI50 [2] of 21.1 µM. It also gave a TGI [2] of 43.2 µM, a GI50 [3] greater than 100 µM and a TGI [3] greater than 100 µM. It also gave a GI50 [4] of 26.8 µM, a TGI [4] greater than 100 µM and a GI50 [5] of 14.2 µM. It also gave a TGI [5] of 29.8 µM, a GI50 [6] of 69.7 µM and a TGI [6] greater than 100 µM. For the same compound, the GI50 [7] was 2.56 µM, the TGI [7] was 8.18 µM and the GI50 [8] was 5.21 µM. The TGI [8] was greater than 100 µM, the GI50 [9] was 10.3 µM and the TGI [9] was greater than 100 µM. The GI50 [10] was 22.3 µM, the TGI [10] was greater than 100 µM and the GI50 [11] was 6.18 µM. It also gave a TGI [11] greater than 100 µM, a GI50 [12] of 3.65 µM and a TGI [12] of 13.6 µM. The GI50 [13] was greater than 100 µM, the TGI [13] was greater than 100 µM and the GI50 [14] was greater than 100 µM. For the same compound, the TGI [14] was greater than 100 µM, the GI50 [15] was 14.3 µM and the TGI [15] was 30.6 µM. For the same compound, the GI50 [16] was 3.01 µM, the TGI [16] was 12.4 µM and the GI50 [17] was 2.96 µM. For the same compound, the TGI [17] was 15.8 µM, the GI50 [18] was 6.81 µM and the TGI [18] was greater than 100 µM. The GI50 [19] was 13.6 µM, the TGI [19] was 30.7 µM and the GI50 [20] was 8.47 µM. For the same compound, the TGI [20] was greater than 100 µM, the GI50 [21] was 1.95 µM and the TGI [21] was 11 µM. For the same compound, the GI50 [22] was 3.21 µM, the TGI [22] was 11.5 µM and the GI50 [23] was 5.83 µM. It also gave a TGI [23] greater than 100 µM, a GI50 [24] of 2.6 µM and a TGI [24] of 8.74 µM. It also gave a GI50 [25] of 2.06 µM, a TGI [25] of 6.36 µM and a GI50 [26] of 2.84 µM. For the same compound, the TGI [26] was 9.44 µM, the GI50 [27] was 3.7 µM and the TGI [27] was 20.5 µM. For the same compound, the GI50 [28] was 1.98 µM, the TGI [28] was 4.82 µM and the GI50 [29] was 5.25 µM. The TGI [29] was greater than 100 µM, the GI50 [30] was 4.12 µM and the TGI [30] was 24.2 µM. It also gave a GI50 [31] of 5.79 µM, a TGI [31] of 18.3 µM and a GI50 [32] of 3.07 µM. For the same compound, the TGI [32] was 33.9 µM, the GI50 [33] was 2.4 µM and the TGI [33] was 8.03 µM. It also gave a GI50 [34] greater than 100 µM, a TGI [34] greater than 100 µM and a GI50 [35] of 2.25 µM. For the same compound, the TGI [35] was 6.58 µM, the GI50 [36] was 3.95 µM and the TGI [36] was 24.8 µM. It also gave a GI50 [37] of 24 µM, a TGI [37] greater than 100 µM and a GI50 [38] of 12.7 µM. For the same compound, the TGI [38] was greater than 100 µM, the GI50 [39] was 6.59 µM and the TGI [39] was greater than 100 µM. For the same compound, the GI50 [40] was 7.3 µM, the TGI [40] was greater than 100 µM and the GI50 [41] was 5.69 µM. The TGI [41] was 26.8 µM, the GI50 [42] was 4.81 µM and the TGI [42] was 18.7 µM. The GI50 [43] was 16.5 µM, the TGI [43] was 34 µM and the GI50 [44] was 3.36 µM. It also gave a TGI [44] of 15.3 µM, a GI50 [45] of 7.09 µM and a TGI [45] of 20.3 µM. The GI50 [46] was 2.49 µM, the TGI [46] was 7.97 µM and the GI50 [47] was 12.4 µM. The TGI [47] was greater than 100 µM, the GI50 [48] was 21.6 µM and the TGI [48] was 55.8 µM. For the same compound, the GI50 [49] was 4.74 µM, the TGI [49] was 23.9 µM and the GI50 [50] was 10.1 µM. It also gave a TGI [50] of 23.6 µM, a GI50 [51] of 4.82 µM and a TGI [51] of 24.2 µM. For the same compound, the GI50 [52] was 18 µM, the TGI [52] was greater than 100 µM and the GI50 [53] was 3.34 µM. It also gave a TGI [53] greater than 100 µM, a GI50 [54] of 4 µM and a TGI [54] of 30.2 µM. It also gave a GI50 [55] of 23.7 µM, a TGI [55] of 59.7 µM and a GI50 [56] of 6.42 µM. The TGI [56] was 19.6 µM, the GI50 [57] was 20.1 µM and the TGI [57] was greater than 100 µM. For the same compound, the GI50 [58] was 6.99 µM, the TGI [58] was 26.6 µM and the GI50 [59] was greater than 100 µM. The TGI [59] was greater than 100 µM.
